Results from patent publication US20130116263A1, “PAK INHIBITORS FOR THE TREATMENT OF CELL PROLIFERATIVE DISORDERS” (AFRAXIS, INC., priority 2011, published 2013).
Where two headings read alike, the source gives them in different places.

Key:
[1] = tested on: p-MEK1(S298); assay: In vitro cellular HTRF assay for p-MEK1(S298); assay type: cell-based; details: cell line RT4-D6P2T, read-out: pMEK1(S298)
Excerpt: Some of the compounds for treatment of cancer are subject to in vitro cellular HTRF assay for p-PAK1(S144) and p-MEK1(S298). The cell line is RT4-D6P2T.

[2] = target: PAK1 (Homo sapiens, UniProt Q13153); assay: Additional in vitro PAK1 inhibition assay at ATP 10 uM and 1 mM; assay type: biochemical
Sequence of PAK1 (Q13153 whole entry): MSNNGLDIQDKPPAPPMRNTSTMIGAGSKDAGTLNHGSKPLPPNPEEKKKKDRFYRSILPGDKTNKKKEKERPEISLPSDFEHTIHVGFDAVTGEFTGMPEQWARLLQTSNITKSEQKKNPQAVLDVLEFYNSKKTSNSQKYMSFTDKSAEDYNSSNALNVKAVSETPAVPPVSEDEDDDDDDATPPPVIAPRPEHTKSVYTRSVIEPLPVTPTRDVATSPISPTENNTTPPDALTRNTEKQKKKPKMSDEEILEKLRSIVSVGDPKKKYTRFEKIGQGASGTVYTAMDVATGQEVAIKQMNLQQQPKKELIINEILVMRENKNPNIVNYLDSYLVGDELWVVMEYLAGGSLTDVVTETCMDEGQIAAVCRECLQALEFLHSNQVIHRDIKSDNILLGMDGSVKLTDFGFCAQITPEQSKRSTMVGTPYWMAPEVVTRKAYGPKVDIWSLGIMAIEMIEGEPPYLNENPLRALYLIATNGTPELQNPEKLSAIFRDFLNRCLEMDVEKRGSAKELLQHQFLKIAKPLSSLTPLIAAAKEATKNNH
Procedure: (§1) Similar in vitro PAK1 and PAK-4 inhibition assays are conducted in compounds for the treatment of cancer, but under ATP concentrations of 10 uM and 1 mM.

[3] = target: PAK4 (Homo sapiens, UniProt O96013); assay: Additional in vitro PAK-4 inhibition assay at ATP 10 uM and 1 mM; assay type: biochemical; details: 10 μM ATP; read-out: PAK4 IC50 (10 μM ATP)
Sequence of PAK4 (O96013 whole entry): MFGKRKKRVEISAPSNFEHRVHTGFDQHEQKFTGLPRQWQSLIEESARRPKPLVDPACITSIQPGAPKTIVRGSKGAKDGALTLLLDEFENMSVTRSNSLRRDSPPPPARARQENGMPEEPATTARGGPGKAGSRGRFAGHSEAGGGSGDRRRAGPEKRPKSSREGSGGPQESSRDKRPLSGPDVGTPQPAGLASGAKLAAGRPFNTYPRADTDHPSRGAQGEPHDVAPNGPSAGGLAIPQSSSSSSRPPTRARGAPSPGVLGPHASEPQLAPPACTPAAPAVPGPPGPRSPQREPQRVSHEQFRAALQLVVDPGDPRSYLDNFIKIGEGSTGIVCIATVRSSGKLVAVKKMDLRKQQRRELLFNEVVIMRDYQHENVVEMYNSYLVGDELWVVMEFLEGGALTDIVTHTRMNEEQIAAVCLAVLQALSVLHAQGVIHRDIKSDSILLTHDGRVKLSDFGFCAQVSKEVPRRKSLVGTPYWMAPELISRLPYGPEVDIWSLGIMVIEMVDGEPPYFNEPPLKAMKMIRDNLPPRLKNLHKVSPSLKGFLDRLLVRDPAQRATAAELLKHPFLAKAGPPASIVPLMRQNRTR
Procedure: as §1

[4] = 10 μM ATP, read-out: PAK1 IC50 (10 μM ATP)
[5] = 1 mM ATP, read-out: PAK1 IC50 (1 mM ATP)

| SMILES | IC50 [1] | IC50 [2, 4] | IC50 [2, 5] | IC50 [3] |
| --- | --- | --- | --- | --- |
| Cc1nc(-c2ccc(-c3cc4cnc(NC5CCOCC5)nc4n(CC(=O)N4CCC(CN)CC4)c3=O)c(Cl)c2)no1 [drawing 381] | > 5 µM | – | – | – |
| CCn1c(=O)c(-c2ccc(-c3noc(C)n3)cc2Cl)cc2cnc(NC3COC4(CCCC4)C3)nc21 (stereo not shown) | – | 500 to 5000 nM | ≥ 5000 nM | 0.5 to 5 µM |
| CCn1c(=O)c(-c2ccc(-c3noc(C)n3)cc2Cl)cc2cnc(NCc3ccccn3)nc21 | – | 500 to 5000 nM | ≥ 5000 nM | ≥ 5 µM |
| CCn1c(=O)c(-c2ccc(-c3noc(C)n3)cc2Cl)cc2cnc(NCC3CCCO3)nc21 (stereo not shown) | – | 500 to 5000 nM | ≥ 5000 nM | ≥ 5 µM |
| CCn1c(=O)c(-c2ccc(-c3noc(C)n3)cc2Cl)cc2cnc(NC3(C)CC3)nc21 | – | 500 to 5000 nM | ≥ 5000 nM | ≥ 5 µM |
| CCn1c(=O)c(-c2ccc(-c3noc(C)n3)cc2Cl)cc2cnc(NCC(C)(C)O)nc21 | – | 500 to 5000 nM | ≥ 5000 nM | ≥ 5 µM |
| Cc1nc(-c2ccc(-c3cc4cnc(NC5CCOCC5)nc4n(C4CCNC4)c3=O)c(Cl)c2)no1 (stereo not shown) | – | 500 to 5000 nM | ≥ 5000 nM | ≥ 5 µM |
| CCn1c(=O)c(-c2ccc(-c3noc(C)n3)cc2Cl)cc2cnc(NC3CCN(C)C3=O)nc21 (stereo not shown) | – | ≥ 5000 nM | ≥ 5000 nM | ≥ 5 µM |
| CCn1c(=O)c(-c2ccc(-c3noc(C)n3)cc2Cl)cc2cnc(NCC(=O)NC)nc21 | – | 500 to 5000 nM | ≥ 5000 nM | ≥ 5 µM |
| CCn1c(=O)c(-c2ccc(-c3noc(C)n3)cc2Cl)cc2cnc(NCc3cccnc3)nc21 | – | 500 to 5000 nM | ≥ 5000 nM | ≥ 5 µM |
| Cc1nc(-c2ccc(-c3cc4cnc(NC5CCOCC5)nc4n(Cc4ccccc4)c3=O)c(Cl)c2)no1 | – | 500 to 5000 nM | ≥ 5000 nM | ≥ 5 µM |
| Cc1nc(-c2ccc(-c3cc4cnc(NC5CCOCC5)nc4n(CC(=O)NC4CCCNC4)c3=O)c(Cl)c2)no1 (stereo not shown) | – | 50 to 500 nM | ≥ 5000 nM | ≥ 5 µM |
| CCn1c(=O)c(-c2ccc(-c3noc(C)n3)cc2Cl)cc2cnc(N[C@@H]3C[C@H]3C)nc21 | – | 50 to 500 nM | < 50 nM | < 0.05 µM |
| CCN1CCC(Cn2c(=O)c(-c3ccc(-c4noc(C)n4)cc3Cl)cc3cnc(NC4CCOCC4)nc32)CC1 | – | 50 to 500 nM | ≥ 5000 nM | ≥ 5 µM |
| Cc1nc(-c2ccc(-c3cc4cnc(NC5CCOCC5)nc4n(CC(=O)N4CCCC(N)C4)c3=O)c(Cl)c2)no1 (stereo not shown) | – | 50 to 500 nM | ≥ 5000 nM | ≥ 5 µM |
| Cc1nc(-c2ccc(-c3cc4cnc(NC5CCOCC5)nc4n(CC4CCCNC4)c3=O)c(Cl)c2)no1 (stereo not shown) | – | 50 to 500 nM | ≥ 5000 nM | ≥ 5 µM |
| CCn1c(=O)c(-c2ccc(-c3noc(C)n3)cc2Cl)cc2cnc(NC(C)C)nc21 | – | 500 to 5000 nM | ≥ 5000 nM | ≥ 5 µM |
| Cc1nc(-c2ccc(-c3cc4cnc(NC5CCOCC5)nc4n(C4CCN(C(=O)CN)CC4)c3=O)c(Cl)c2)no1 | – | 50 to 500 nM | ≥ 5000 nM | ≥ 5 µM |
| CCn1c(=O)c(-c2ccc(-c3noc(C)n3)cc2Cl)cc2cnc(N[C@H]3CC[C@H](N4CCN(C)CC4)CC3)nc21 | – | 500 to 5000 nM | ≥ 5000 nM | ≥ 5 µM |

| SMILES | IC50 [1] | IC50 [2, 4] | IC50 [2, 5] | IC50 [3] |
| --- | --- | --- | --- | --- |
| CCn1c(=O)c(-c2ccc(-c3noc(C)n3)cc2Cl)cc2cnc(NCCCN(C)C)nc21 | – | 500 to 5000 nM | ≥ 5000 nM | ≥ 5 µM |
| Cc1nc(-c2ccc(-c3cc4cnc(NC5CCOCC5)nc4n(Cc4c(F)cccc4C(F)(F)F)c3=O)c(Cl)c2)no1 | – | 50 to 500 nM | 500 to 5000 nM | ≥ 5 µM |
| CCn1c(=O)c(-c2ccc(-c3noc(C)n3)cc2Cl)cc2cnc(NCCC3CCN(C)CC3)nc21 [drawing 361] | – | 50 to 500 nM | ≥ 5000 nM | ≥ 5 µM |
| CCn1c(=O)c(-c2ccc(-c3noc(C)n3)cc2Cl)cc2cnc(NCCCO)nc21 | – | 50 to 500 nM | ≥ 5000 nM | ≥ 5 µM |
| CCn1c(=O)c(-c2ccc(-c3noc(C)n3)cc2Cl)cc2cnc(NC3CCNC3=O)nc21 (stereo not shown) | – | ≥ 5000 nM | ≥ 5000 nM | ≥ 5 µM |
| CCn1c(=O)c(-c2ccc(-c3noc(C)n3)cc2Cl)cc2cnc(NC3CCC(=O)NC3)nc21 (stereo not shown) | – | 500 to 5000 nM | ≥ 5000 nM | ≥ 5 µM |
| CCn1c(=O)c(-c2ccc(-c3noc(C)n3)cc2Cl)cc2cnc(NC3CCCC3)nc21 | – | 500 to 5000 nM | ≥ 5000 nM | 0.5 to 5 µM |
| CCn1c(=O)c(-c2ccc(-c3noc(C)n3)cc2Cl)cc2cnc(NC3COC3)nc21 | – | 50 to 500 nM | ≥ 5000 nM | ≥ 5 µM |
| CCNc1ncc2cc(-c3ccc(-c4noc(C)n4)cc3Cl)c(=O)n(CC)c2n1 | – | 500 to 5000 nM | ≥ 5000 nM | ≥ 5 µM |
| CCn1c(=O)c(-c2ccc(-c3noc(C)n3)cc2Cl)cc2cnc(NCc3ccncc3)nc21 | – | 50 to 500 nM | ≥ 5000 nM | ≥ 5 µM |
| Cc1nc(-c2ccc(-c3cc4cnc(NC5CCOCC5)nc4n(-c4ccccc4)c3=O)c(Cl)c2)no1 | – | 50 to 500 nM | ≥ 5000 nM | ≥ 5 µM |
| CCn1c(=O)c(-c2ccc(-c3noc(C)n3)cc2Cl)cc2cnc(NCC3CCOCC3)nc21 | – | 500 to 5000 nM | ≥ 5000 nM | ≥ 5 µM |
| Cc1nc(-c2ccc(-c3cc4cnc(NC5CCOCC5)nc4n(CC(=O)NCc4ccncc4)c3=O)c(Cl)c2)no1 [drawing 348] | – | 50 to 500 nM | ≥ 5000 nM | ≥ 5 µM |
| Cc1nc(-c2ccc(-c3cc4cnc(NC5CCOCC5)nc4n(CC(=O)NC4CCNCC4)c3=O)c(Cl)c2)no1 | – | 500 to 5000 nM | ≥ 5000 nM | ≥ 5 µM |
| CCn1c(=O)c(-c2ccc(-c3noc(C)n3)cc2Cl)cc2cnc(NCCCNC(C)=O)nc21 | – | 500 to 5000 nM | ≥ 5000 nM | ≥ 5 µM |
| CCN1CCC(CCNc2ncc3cc(-c4ccc(-c5noc(C)n5)cc4Cl)c(=O)n(CC)c3n2)CC1 | – | 50 to 500 nM | 500 to 5000 nM | ≥ 5 µM |
| CCn1c(=O)c(-c2ccc(-c3noc(C)n3)cc2Cl)cc2cnc(NCC3CCOC3)nc21 (stereo not shown) | – | 500 to 5000 nM | ≥ 5000 nM | ≥ 5 µM |
| CCn1c(=O)c(-c2ccc(-c3noc(C)n3)cc2Cl)cc2cnc(N[C@H]3COC[C@H]3O)nc21 | – | 500 to 5000 nM | ≥ 5000 nM | ≥ 5 µM |
| Cc1nc(-c2ccc(-c3cc4cnc(NC5CCOCC5)nc4n(CC4CCN(C)CC4)c3=O)c(Cl)c2)no1 | – | 50 to 500 nM | ≥ 5000 nM | ≥ 5 µM |

Second part, the compound after the results:

| IC50 [1] | IC50 [2, 4] | IC50 [2, 5] | IC50 [3] | SMILES |
| --- | --- | --- | --- | --- |
| – | < 50 nM | 500 to 5000 nM | ≥ 5 µM | Cc1nc(-c2ccc(-c3cc4cnc(NC5CCOCC5)nc4n(Cc4ccc(CCN)cc4)c3=O)c(Cl)c2)no1 [drawing 338] |
| – | < 50 nM | 50 to 500 nM | ≥ 5 µM | Cc1nc(-c2ccc(-c3cc4cnc(NC5CCOCC5)nc4n(Cc4cccc(CN)c4)c3=O)c(Cl)c2)no1 [drawing 342] |
| – | 50 to 500 nM | ≥ 5000 nM | ≥ 5 µM | Cc1nc(-c2ccc(-c3cc4cnc(NC5CCOCC5)nc4n(CC(=O)NC4CCNC4)c3=O)c(Cl)c2)no1 (stereo not shown) [drawing 346] |
| – | 50 to 500 nM | ≥ 5000 nM | ≥ 5 µM | Cc1nc(-c2ccc(-c3cc4cnc(NC5CCOCC5)nc4n(CC4CCCN(C)C4)c3=O)c(Cl)c2)no1 (stereo not shown) |
| – | 50 to 500 nM | ≥ 5000 nM | ≥ 5 µM | Cc1nc(-c2ccc(-c3cc4cnc(NC5CCOCC5)nc4n(CC(=O)N4CCCC(CN)C4)c3=O)c(Cl)c2)no1 (stereo not shown) |
| – | 50 to 500 nM | ≥ 5000 nM | ≥ 5 µM | Cc1nc(-c2ccc(-c3cc4cnc(NC5CCOCC5)nc4n(CC(=O)N4CCC(N)CC4)c3=O)c(Cl)c2)no1 |
| – | 50 to 500 nM | ≥ 5000 nM | ≥ 5 µM | CCn1c(=O)c(-c2ccc(-c3noc(C)n3)cc2Cl)cc2cnc(N[C@@H]3CCO[C@@H]3N3CCN(C)CC3)nc21 |
| – | < 50 nM | 500 to 5000 nM | ≥ 5 µM | Cc1nc(-c2ccc(-c3cc4cnc(N[C@H]5C[C@@H]5C)nc4n(CC4CCNCC4)c3=O)c(Cl)c2)no1 |
| – | < 50 nM | 500 to 5000 nM | ≥ 5 µM | Cc1nc(-c2ccc(-c3cc4cnc(NC5CCOCC5)nc4n(Cc4cccc(OCCN)c4)c3=O)c(Cl)c2)no1 [drawing 344] |
| – | 50 to 500 nM | ≥ 5000 nM | ≥ 5 µM | Cc1nc(-c2ccc(-c3cc4cnc(NC5CCOCC5)nc4n(C4CCOCC4)c3=O)c(Cl)c2)no1 |
| – | 50 to 500 nM | ≥ 5000 nM | ≥ 5 µM | Cc1nc(-c2ccc(-c3cc4cnc(NC5CCOCC5)nc4n(Cc4ccc5c(c4)CNC5)c3=O)c(Cl)c2)no1 |
| – | 50 to 500 nM | ≥ 5000 nM | ≥ 5 µM | Cc1nc(-c2ccc(-c3cc4cnc(NC5CCOCC5)nc4n(C4CCN(C5CCNCC5)C4)c3=O)c(Cl)c2)no1 (stereo not shown) |
| – | < 50 nM | 500 to 5000 nM | ≥ 5 µM | Cc1nc(-c2ccc(-c3cc4cnc(NC5CCOCC5)nc4n(CC4CCNCC4)c3=O)c(Cl)c2)no1 [drawing 340] |
| – | < 50 nM | 500 to 5000 nM | ≥ 5 µM | Cc1nc(-c2ccc(-c3cc4cnc(NC5CCOCC5)nc4n(CCC4CCNCC4)c3=O)c(Cl)c2)no1 [drawing 343] |
| – | < 50 nM | ≥ 5000 nM | ≥ 5 µM | Cc1nc(-c2ccc(-c3cc4cnc(NC5CCOCC5)nc4n(CC(=O)N4CCC(CN)CC4)c3=O)c(Cl)c2)no1 [drawing 352] |
| – | < 50 nM | 50 to 500 nM | ≥ 5 µM | Cc1nc(-c2ccc(-c3cc4cnc(NC5CCOCC5)nc4n(Cc4ccc(CN)cc4)c3=O)c(Cl)c2)no1 [drawing 341] |
| – | < 50 nM | 500 to 5000 nM | ≥ 5 µM | Cc1nc(-c2ccc(-c3cc4cnc(NC5CCNC(=O)C5)nc4n(Cc4c(F)cccc4C(F)(F)F)c3=O)c(Cl)c2)no1 (stereo not shown) [drawing 354] |
